Laboratory results as given in the supplement of paper PMC10627819.

Assays:
S. aureus DSM 20231 [1] = assay: fitness (endpoint OD595 vs no drug) (fraction); higher = more growth
Outline: (§1)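 Growth medium was TSB, LB Lennox or CY, and plates were kept at 37 °C. Inoculation was at OD595 0.01 in 384-well plates, at 30 µl per well or 55 µl for S. pneumoniae. OD595 was monitored every 30 min for 14 h and background-subtracted using the first reading. Fitness is the optical density on entering stationary phase divided by the robust mean of no-drug controls, with values capped at 1.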

S. aureus Newman [2] = assay: as above; conditions: main component drawn
Outline: as §1

B. subtilis 168 [3] = assay: Bliss interaction score (quartile over a dose matrix) (fitness difference); higher = more antagonism (negative = synergy)
Outline: (§2)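 Each OD595 reading at entry into stationary phase was scaled to the robust mean of the untreated wells on its plate, with a ceiling of 1. These ratios define fitness, and single-drug fitness was inferred from combinations. The Bliss score compares observed fitness with the product-based expectation and is reported as quartiles across all replicate types, technical, biological and donor/recipient.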

S. aureus DSM 20231 [4] = assay: as above
Outline: as §2

S. aureus Newman [5] = assay: as above
Outline: as §2

S. pneumoniae D39V [6] = assay: as above
Outline: as §2

B. subtilis 168 [7] = assay: fitness (endpoint OD595 vs no drug) (fraction); higher = more growth
Outline: as §1

S. pneumoniae D39V [8] = assay: as above
Outline: as §1
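Throughout, for Bliss interaction score (quartile over a dose matrix): first quartile when negative (synergy) and third quartile when positive (antagonism).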
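Throughout, for fitness (endpoint OD595 vs no drug): OD595 on entry to stationary phase over no-drug wells; at most 1.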

Cc1ncc([N+](=O)[O-])n1CCO [Metronidazole] + CCCCCCCCCC(=O)N[C@@H]1[C@H]([C@@H]([C@H](O[C@H]1OC2=C3C=C4C=C2OC5=C(C=C(C=C5)[C@H]([C@H]6C(=O)N[C@@H](C7=C(C(=CC(=C7)O)OC8[C@H]([C@H]([C@@H]([C@H](O8)CO)O)O)O)C9=C(C=CC(=C9)[C@H](C(=O)N6)NC(=O)[C@@H]4NC(=O)[C@@H]1C2=CC(=CC(=C2)OC2=C(C=CC(=C2)[C@H](C(=O)N[C@H](CC2=CC(=C(O3)C=C2)Cl)C(=O)N1)N)O)O)O)C(=O)O)O[C@H]1[C@@H]([C@H]([C@@H]([C@H](O1)CO)O)O)NC(=O)C)Cl)CO)O)O [Teicoplanin]
fitness
Conditions | first compound 0.625 µg/mL | first compound 0.781 µg/mL | first compound 1.25 µg/mL | first compound 1.562 µg/mL | first compound 2.5 µg/mL | first compound 3.124 µg/mL
S. aureus DSM 20231 [1], partner 0.1562 µg/mL, main component drawn | 0.967 | – | ≥ 1 | – | ≥ 1 | –
S. aureus DSM 20231 [1], partner 0.3125 µg/mL, main component drawn | ≥ 1 | – | ≥ 1 | – | ≥ 1 | –
S. aureus DSM 20231 [1], partner 0.625 µg/mL, main component drawn | ≥ 1 | – | ≥ 1 | – | ≥ 1 | –
S. aureus Newman [2], partner 0.1562 µg/mL, one replicate | – | ≥ 1 | – | ≥ 1 | – | ≥ 1
S. aureus Newman [2], partner 0.3125 µg/mL, one replicate | – | ≥ 1 | – | 0.961 | – | 0.989
S. aureus Newman [2], partner 0.62 µg/mL, one replicate | 0.82 | – | 0.795 | – | 0.81 | –
S. aureus Newman [2], partner 0.625 µg/mL, one replicate | – | 0.845 | – | 0.805 | – | 0.836
S. aureus Newman [2], partner 1.24 µg/mL, one replicate | 0.745 | – | 0.774 | – | 0.76 | –
S. aureus Newman [2], partner 2.48 µg/mL, one replicate | 0.492 | – | 0.505 | – | 0.486 | –

fitness, S. aureus Newman [2]
Conditions | first compound 0.625 µg/mL | first compound 1.25 µg/mL | first compound 2.5 µg/mL
partner 0.1562 µg/mL | 0.976 | 0.979 | –
partner 0.3125 µg/mL | 0.988 | 0.973 | 0.933
partner 0.625 µg/mL | 0.927 | 0.925 | 0.752

main component drawn
Conditions | Bliss interaction score
B. subtilis 168 [3] | 0.0689
S. aureus DSM 20231 [4] | 0.0308
S. aureus Newman [5] | 0.0581
S. pneumoniae D39V [6] | 0.126

C[C@@H]1O[C@@H]1P(=O)(O)O [Fosfomycin] + CC(=O)NC[C@H]1CN(c2ccc(N3CCOCC3)c(F)c2)C(=O)O1 [Linezolid]
fitness, one replicate
Conditions | first compound 0.781 µg/mL | first compound 1.562 µg/mL | first compound 3.124 µg/mL | first compound 6.248 µg/mL
B. subtilis 168 [7], partner 0.0625 µg/mL | – | 0.726 | 0.606 | 0.368
S. aureus DSM 20231 [1], partner 1 µg/mL | 0.0309 | 0.0297 | 0.0078 | –

Conditions | fitness
B. subtilis 168 [7], first compound 1.562 µg/mL, partner 0.125 µg/mL | 0.507
B. subtilis 168 [7], first compound 3.124 µg/mL, partner 0.125 µg/mL | 0.437
B. subtilis 168 [7], first compound 6.248 µg/mL, partner 0.125 µg/mL | 0.304
S. aureus DSM 20231 [1], first compound 0.781 µg/mL, partner 0.125 µg/mL | 0.691
S. aureus DSM 20231 [1], first compound 0.781 µg/mL, partner 0.25 µg/mL | 0.581
S. aureus DSM 20231 [1], first compound 0.781 µg/mL, partner 0.5 µg/mL | 0.167
S. aureus DSM 20231 [1], first compound 1.562 µg/mL, partner 0.125 µg/mL | 0.598
S. aureus DSM 20231 [1], first compound 1.562 µg/mL, partner 0.25 µg/mL | 0.495
S. aureus DSM 20231 [1], first compound 1.562 µg/mL, partner 0.5 µg/mL | 0.0991
S. aureus DSM 20231 [1], first compound 3.124 µg/mL, partner 0.125 µg/mL | 0.459
S. aureus DSM 20231 [1], first compound 3.124 µg/mL, partner 0.25 µg/mL | 0.339
S. aureus DSM 20231 [1], first compound 3.124 µg/mL, partner 0.5 µg/mL | 0.0673
S. pneumoniae D39V [8], first compound 1.25 µg/mL, partner 0.105 µg/mL | 0.839
S. pneumoniae D39V [8], first compound 1.25 µg/mL, partner 0.21 µg/mL | 0.76
S. pneumoniae D39V [8], first compound 1.25 µg/mL, partner 0.4 µg/mL | 0.314
S. pneumoniae D39V [8], first compound 1.25 µg/mL, partner 0.42 µg/mL | 0.605
S. pneumoniae D39V [8], first compound 1.25 µg/mL, partner 0.8 µg/mL | 0.138
S. pneumoniae D39V [8], first compound 2.5 µg/mL, partner 0.105 µg/mL | 0.803
S. pneumoniae D39V [8], first compound 2.5 µg/mL, partner 0.2 µg/mL | 0.626
S. pneumoniae D39V [8], first compound 2.5 µg/mL, partner 0.21 µg/mL | 0.729
S. pneumoniae D39V [8], first compound 2.5 µg/mL, partner 0.4 µg/mL | 0.315
S. pneumoniae D39V [8], first compound 2.5 µg/mL, partner 0.42 µg/mL | 0.522
S. pneumoniae D39V [8], first compound 2.5 µg/mL, partner 0.8 µg/mL | 0.132
S. pneumoniae D39V [8], first compound 5 µg/mL, partner 0.105 µg/mL | 0.721
S. pneumoniae D39V [8], first compound 5 µg/mL, partner 0.2 µg/mL | 0.564
S. pneumoniae D39V [8], first compound 5 µg/mL, partner 0.21 µg/mL | 0.704
S. pneumoniae D39V [8], first compound 5 µg/mL, partner 0.4 µg/mL | 0.311
S. pneumoniae D39V [8], first compound 5 µg/mL, partner 0.42 µg/mL | 0.421
S. pneumoniae D39V [8], first compound 5 µg/mL, partner 0.8 µg/mL | 0.136

Conditions | Bliss interaction score
B. subtilis 168 [3] | 0.123
S. aureus DSM 20231 [4] | 0.0569
S. aureus Newman [5] | -0.134
S. pneumoniae D39V [6] | 0.0981
